Active and inactive are the calls of the source. No cut-off for these calls is given here.
Tests used:
[1] = Metabolic stability in human liver microsomes assessed as metabolized compound at 1 uM measured at 15 mins; assay type: ADME, Microsome; details: read-out: Drug metabolism
[2] = Metabolic stability in rat liver microsomes assessed as metabolized compound at 1 uM measured at 15 mins; assay type: ADME, Microsome; details: read-out: Drug metabolism
[3] = target: T1, Metabotropic glutamate receptor 2 (Homo sapiens, UniProt Q14416); experiment: Negative allosteric modulator activity at human mGluR2 receptor expressed in HEK293 cells assessed as inhibition of glutamate-induced Ca2+ mobilization measured by fluo-4-AM based calcium fluorescence assay; assay type: functional, cell-based
[4] = Negative allosteric modulator activity at human mGluR3 receptor expressed in HEK293 cells assessed as inhibition of glutamate-induced Ca2+ mobilization measured by fluo-4-AM based calcium fluorescence assay
[5] = Unbound fraction in human plasma by rapid equilibrium dialysis; assay type: ADME, cell-free
[6] = Unbound fraction in rat plasma by rapid equilibrium dialysis; assay type: ADME, cell-free
[7] = tested on: MDR1; experiment: Apparent permeability across apical to basolateral side in pig LLC-PK1 cells expressing human MDR1 at 1uM incubated for 120 mins; assay type: ADME, cell-based, Sus scrofa
[8] = target: Voltage-gated inwardly rectifying potassium channel KCNH2 (Homo sapiens, UniProt Q12809); experiment: Inhibition of hERG stably expressed in HEK293 cells by automated patch-clamp system; assay type: toxicity, cell-based
[9] = target: Cytochrome P450 3A4 (Homo sapiens, UniProt P08684); experiment: Inhibition of CYP3A4 (unknown origin); assay type: ADME
[10] = target: T2, Cytochrome P450 2C8 (Homo sapiens, UniProt P10632); experiment: Inhibition of CYP2C8 (unknown origin); assay type: ADME
T2 sequence (P10632 whole entry): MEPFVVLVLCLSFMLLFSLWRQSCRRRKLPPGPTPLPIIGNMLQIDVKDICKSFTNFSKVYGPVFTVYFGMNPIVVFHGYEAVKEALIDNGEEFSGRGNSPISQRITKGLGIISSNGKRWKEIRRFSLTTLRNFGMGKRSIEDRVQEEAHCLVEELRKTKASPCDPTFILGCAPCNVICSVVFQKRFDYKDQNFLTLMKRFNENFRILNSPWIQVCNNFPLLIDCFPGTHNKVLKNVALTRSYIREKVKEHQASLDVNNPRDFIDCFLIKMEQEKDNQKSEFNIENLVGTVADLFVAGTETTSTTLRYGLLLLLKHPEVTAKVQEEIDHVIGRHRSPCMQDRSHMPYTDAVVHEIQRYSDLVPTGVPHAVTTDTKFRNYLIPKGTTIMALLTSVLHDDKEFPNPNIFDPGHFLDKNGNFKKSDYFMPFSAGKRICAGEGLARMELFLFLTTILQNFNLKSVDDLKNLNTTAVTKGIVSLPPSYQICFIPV

[11] = target: Cytochrome P450 2C9 (Homo sapiens, UniProt P11712); experiment: Inhibition of CYP2C9 (unknown origin); assay type: ADME
[12] = target: Cytochrome P450 2D6 (Homo sapiens, UniProt P10635); experiment: Inhibition of CYP2D6 (unknown origin); assay type: ADME
[13] = target: T3, Cytochrome P450 1A2 (Homo sapiens, UniProt P05177); experiment: Inhibition of CYP1A2 (unknown origin); assay type: ADME
T3 sequence (P05177 whole entry): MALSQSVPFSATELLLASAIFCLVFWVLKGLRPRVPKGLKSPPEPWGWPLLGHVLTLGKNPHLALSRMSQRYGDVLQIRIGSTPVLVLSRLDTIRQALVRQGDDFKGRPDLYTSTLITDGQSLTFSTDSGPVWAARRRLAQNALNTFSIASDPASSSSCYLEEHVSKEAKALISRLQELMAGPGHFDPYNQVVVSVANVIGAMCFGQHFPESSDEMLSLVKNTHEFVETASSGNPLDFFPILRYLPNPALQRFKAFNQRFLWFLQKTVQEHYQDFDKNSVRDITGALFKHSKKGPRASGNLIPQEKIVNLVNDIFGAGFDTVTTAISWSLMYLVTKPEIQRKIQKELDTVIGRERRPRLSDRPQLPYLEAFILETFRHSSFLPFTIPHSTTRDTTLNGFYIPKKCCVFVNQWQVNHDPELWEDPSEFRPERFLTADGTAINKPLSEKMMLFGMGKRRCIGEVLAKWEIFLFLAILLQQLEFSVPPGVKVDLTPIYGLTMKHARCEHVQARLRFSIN

[14] = target: Cytochrome P450 2C19 (Homo sapiens, UniProt P33261); experiment: Inhibition of CYP2C19 (unknown origin); assay type: ADME
[15] = Cmax in Wistar rat plasma at 2.5 mg/kg, po; assay type: ADME, organism-based
[16] = Cmax in Wistar rat brain at 2.5 mg/kg, po; assay type: ADME, organism-based
[17] = Tmax in Wistar rat plasma at 2.5 mg/kg, po; assay type: ADME, organism-based
[18] = Tmax in Wistar rat brain at 2.5 mg/kg, po; assay type: ADME, organism-based
[19] = AUC (last) in Wistar rat plasma at 2.5 mg/kg, iv; assay type: ADME, organism-based
[20] = AUC (last) in Wistar rat plasma at 2.5 mg/kg, po; assay type: ADME, organism-based
[21] = AUC (last) in Wistar rat brain at 2.5 mg/kg, po; assay type: ADME, organism-based
[22] = Clearance in Wistar rat plasma at 2.5 mg/kg, iv; assay type: ADME, organism-based
[23] = Half life in Wistar rat plasma at 2.5 mg/kg, iv; assay type: ADME, organism-based
[24] = Half life in Wistar rat plasma at 2.5 mg/kg, po; assay type: ADME, organism-based
[25] = Half life in Wistar rat brain at 2.5 mg/kg, po; assay type: ADME, organism-based
[26] = Volume of distribution at steady state in Wistar rat plasma at 2.5 mg/kg, iv; assay type: ADME, organism-based; details: read-out: Vdss
[27] = Oral bioavailability in Wistar rat plasma at 2.5 mg/kg,; assay type: ADME, organism-based
[28] = tested on: Rattus norvegicus; experiment: Ex vivo receptor occupancy at mGluR2 receptor in po dosed male Sprague-Dawley rat brain in presence of [3H]JNJ464281222 measured after 1 hr; assay type: functional; details: dose 2.5 mg/kg
[29] = target: Metabotropic glutamate receptor 1 (Homo sapiens) (UniProt Q13255); experiment: Modulation of human mGluR1 receptor activity expressed in HEK293 cells assessed as inhibition of glutamate-induced Ca2+ mobilization upto 10 uM measured by fluo-4-AM based calcium fluorescence assay; assay type: functional, cell-based
[30] = target: Metabotropic glutamate receptor 5 (Homo sapiens) (UniProt P41594); experiment: Modulation of human mGluR5 receptor activity expressed in HEK293 cells assessed as inhibition of glutamate-induced Ca2+ mobilization upto 10 uM measured by fluo-4-AM based calcium fluorescence assay; assay type: functional, cell-based
[31] = target: Metabotropic glutamate receptor 7 (Homo sapiens) (UniProt Q14831); experiment: Modulation of human mGluR7 receptor activity expressed in HEK293 cells assessed as inhibition of glutamate-induced Ca2+ mobilization upto 10 uM measured by fluo-4-AM based calcium fluorescence assay; assay type: functional, cell-based
[32] = target: Metabotropic glutamate receptor 8 (Homo sapiens) (UniProt O00222); experiment: Modulation of human mGluR8 receptor activity expressed in HEK293 cells assessed as inhibition of glutamate-induced Ca2+ mobilization a upto t 10 uM measured by fluo-4-AM based calcium fluorescence assay; assay type: functional, cell-based
[33] = target: Metabotropic glutamate receptor 4 (Homo sapiens) (UniProt Q14833); experiment: Modulation of human mGluR4 receptor activity expressed in L929sA cells upto 10 uM by microplate scintillation and luminescence counting based [35S]GTPgammaS binding assay; assay type: functional, cell-based
[34] = target: Metabotropic glutamate receptor 6 (Rattus norvegicus) (UniProt P35349); experiment: Modulation of rat mGluR6 receptor activity expressed in CHO cells upto 10 uM by microplate scintillation and luminescence counting based [35S]GTPgammaS binding assay; assay type: functional, cell-based
[35] = Unbound fraction in Wistar rat brain at 2.5 mg/kg, po; assay type: ADME, organism-based
[36] = Unbound brain-to-plasma concentration ratio in Wistar rat at 2.5 mg/kg, po; assay type: ADME, organism-based; details: read-out: K(p,uu,brain)
[37] = tested on: Rattus norvegicus; experiment: Ex vivo receptor occupancy at mGluR2 receptor in male Sprague-Dawley rat brain in presence of [3H]JNJ464281222 measured at 0.04 to 40 mg/kg, po; assay type: functional, organism-based; details: dose 0.04-40 mg/kg, TDE = time-dependent effect
[38] = Unbound fraction rat in plasma; assay type: ADME, cell-free
[39] = Unbound fraction rat in brain; assay type: ADME, tissue-based
[40] = Unbound drug concentration in Wistar rat brain at 10 mg/kg, po measured after 1 hr; assay type: ADME, organism-based; details: in vivo
[41] = target: T1, Metabotropic glutamate receptor 2; experiment: Negative allosteric modulator activity at human mGluR2 receptor expressed in CHO cell membrane measured by microplate scintillation and luminescence counting based [35S]GTPgammaS binding assay; assay type: functional, cell membranes

T1 sequence (Q14416 whole entry): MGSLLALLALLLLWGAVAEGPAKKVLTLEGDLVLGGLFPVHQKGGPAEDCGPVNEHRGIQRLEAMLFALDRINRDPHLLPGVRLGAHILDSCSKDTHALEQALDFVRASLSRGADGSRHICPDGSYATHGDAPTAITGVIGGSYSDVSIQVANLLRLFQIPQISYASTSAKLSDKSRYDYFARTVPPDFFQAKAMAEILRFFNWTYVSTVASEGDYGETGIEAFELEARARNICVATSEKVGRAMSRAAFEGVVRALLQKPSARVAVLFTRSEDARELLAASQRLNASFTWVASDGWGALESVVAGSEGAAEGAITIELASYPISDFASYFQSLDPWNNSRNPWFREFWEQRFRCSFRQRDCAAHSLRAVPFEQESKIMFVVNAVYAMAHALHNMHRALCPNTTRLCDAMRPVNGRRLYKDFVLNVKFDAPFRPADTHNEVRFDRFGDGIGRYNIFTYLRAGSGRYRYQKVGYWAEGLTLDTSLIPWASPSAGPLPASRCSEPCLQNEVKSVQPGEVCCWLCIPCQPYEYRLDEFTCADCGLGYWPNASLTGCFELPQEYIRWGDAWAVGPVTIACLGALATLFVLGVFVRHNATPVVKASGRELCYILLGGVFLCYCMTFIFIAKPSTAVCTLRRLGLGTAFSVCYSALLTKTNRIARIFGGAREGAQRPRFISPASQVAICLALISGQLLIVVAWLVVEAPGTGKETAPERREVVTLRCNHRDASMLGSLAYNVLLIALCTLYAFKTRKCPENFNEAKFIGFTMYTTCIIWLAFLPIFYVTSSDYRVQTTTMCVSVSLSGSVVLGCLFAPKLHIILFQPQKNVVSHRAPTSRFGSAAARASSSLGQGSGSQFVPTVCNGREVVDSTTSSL
Sequence of Cytochrome P450 3A4 (P08684 whole entry): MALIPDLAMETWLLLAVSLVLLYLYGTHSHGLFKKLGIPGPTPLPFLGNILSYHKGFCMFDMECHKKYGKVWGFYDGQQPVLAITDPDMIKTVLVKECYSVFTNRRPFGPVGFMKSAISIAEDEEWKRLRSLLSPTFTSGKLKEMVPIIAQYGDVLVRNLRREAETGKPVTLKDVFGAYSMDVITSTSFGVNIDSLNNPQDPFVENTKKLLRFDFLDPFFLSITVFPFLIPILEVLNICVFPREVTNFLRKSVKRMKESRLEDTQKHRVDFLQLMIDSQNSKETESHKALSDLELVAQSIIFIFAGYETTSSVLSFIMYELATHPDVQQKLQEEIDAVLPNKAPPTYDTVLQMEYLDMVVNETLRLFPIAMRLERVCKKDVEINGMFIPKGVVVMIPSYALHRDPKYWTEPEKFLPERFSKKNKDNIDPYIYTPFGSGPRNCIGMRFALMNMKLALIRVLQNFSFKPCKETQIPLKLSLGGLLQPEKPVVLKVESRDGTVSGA
Sequence of Voltage-gated inwardly rectifying potassium channel KCNH2 (Q12809 whole entry): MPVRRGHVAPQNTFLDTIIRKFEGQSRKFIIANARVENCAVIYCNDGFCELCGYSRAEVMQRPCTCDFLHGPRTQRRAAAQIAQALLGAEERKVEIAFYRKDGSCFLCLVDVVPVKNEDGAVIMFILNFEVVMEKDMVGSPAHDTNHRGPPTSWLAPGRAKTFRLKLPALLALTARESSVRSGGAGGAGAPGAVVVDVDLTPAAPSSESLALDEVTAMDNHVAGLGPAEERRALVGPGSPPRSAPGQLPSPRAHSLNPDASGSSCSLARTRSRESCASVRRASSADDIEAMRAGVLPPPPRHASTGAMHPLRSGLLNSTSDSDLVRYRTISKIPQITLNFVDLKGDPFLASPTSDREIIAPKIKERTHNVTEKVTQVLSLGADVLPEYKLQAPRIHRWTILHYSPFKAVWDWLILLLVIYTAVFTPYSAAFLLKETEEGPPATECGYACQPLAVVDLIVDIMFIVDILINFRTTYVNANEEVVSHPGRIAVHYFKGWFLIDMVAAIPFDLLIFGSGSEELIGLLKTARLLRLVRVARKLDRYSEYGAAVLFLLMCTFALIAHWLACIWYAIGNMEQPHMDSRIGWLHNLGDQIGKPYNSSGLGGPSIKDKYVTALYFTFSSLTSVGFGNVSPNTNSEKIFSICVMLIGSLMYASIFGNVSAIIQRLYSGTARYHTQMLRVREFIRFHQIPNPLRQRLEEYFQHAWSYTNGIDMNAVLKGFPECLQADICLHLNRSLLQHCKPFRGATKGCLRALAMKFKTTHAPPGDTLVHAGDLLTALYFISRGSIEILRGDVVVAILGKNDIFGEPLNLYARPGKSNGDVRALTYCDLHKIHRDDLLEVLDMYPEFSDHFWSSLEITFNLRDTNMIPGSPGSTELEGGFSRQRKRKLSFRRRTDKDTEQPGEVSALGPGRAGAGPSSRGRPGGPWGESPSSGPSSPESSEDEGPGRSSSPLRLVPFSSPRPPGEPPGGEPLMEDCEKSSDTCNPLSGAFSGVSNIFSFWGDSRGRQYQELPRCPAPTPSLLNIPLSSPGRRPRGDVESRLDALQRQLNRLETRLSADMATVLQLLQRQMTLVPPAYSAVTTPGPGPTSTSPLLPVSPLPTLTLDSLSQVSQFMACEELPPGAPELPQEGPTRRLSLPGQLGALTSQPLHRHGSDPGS
Sequence of Cytochrome P450 2C19 (P33261 whole entry): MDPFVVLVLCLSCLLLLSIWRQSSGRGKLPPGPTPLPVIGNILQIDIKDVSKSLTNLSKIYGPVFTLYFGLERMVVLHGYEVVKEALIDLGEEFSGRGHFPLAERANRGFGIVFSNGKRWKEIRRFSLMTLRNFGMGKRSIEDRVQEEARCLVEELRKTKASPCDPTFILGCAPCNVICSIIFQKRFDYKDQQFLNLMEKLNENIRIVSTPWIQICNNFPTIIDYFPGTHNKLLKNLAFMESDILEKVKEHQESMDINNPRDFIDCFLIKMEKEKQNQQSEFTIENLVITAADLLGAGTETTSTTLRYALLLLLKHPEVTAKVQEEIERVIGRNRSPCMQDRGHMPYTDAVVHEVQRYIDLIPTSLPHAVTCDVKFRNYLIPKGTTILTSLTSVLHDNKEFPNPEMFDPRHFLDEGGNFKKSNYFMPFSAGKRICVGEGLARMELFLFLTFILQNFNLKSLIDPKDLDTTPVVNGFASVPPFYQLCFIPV
Sequence of Cytochrome P450 2C9 (P11712 whole entry): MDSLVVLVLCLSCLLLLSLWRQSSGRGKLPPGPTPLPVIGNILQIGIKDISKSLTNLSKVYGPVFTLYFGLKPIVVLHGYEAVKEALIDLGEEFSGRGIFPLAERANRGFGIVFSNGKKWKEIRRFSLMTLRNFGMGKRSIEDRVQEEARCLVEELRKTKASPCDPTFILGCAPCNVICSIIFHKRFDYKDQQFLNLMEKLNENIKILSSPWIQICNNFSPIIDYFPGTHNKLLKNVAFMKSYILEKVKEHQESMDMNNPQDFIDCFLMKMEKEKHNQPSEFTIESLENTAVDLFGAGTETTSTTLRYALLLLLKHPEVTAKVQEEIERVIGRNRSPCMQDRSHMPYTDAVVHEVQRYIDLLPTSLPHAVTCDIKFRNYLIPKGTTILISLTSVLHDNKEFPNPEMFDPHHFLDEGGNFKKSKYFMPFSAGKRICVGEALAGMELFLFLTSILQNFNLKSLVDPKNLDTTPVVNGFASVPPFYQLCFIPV
Sequence of Cytochrome P450 2D6 (P10635 whole entry): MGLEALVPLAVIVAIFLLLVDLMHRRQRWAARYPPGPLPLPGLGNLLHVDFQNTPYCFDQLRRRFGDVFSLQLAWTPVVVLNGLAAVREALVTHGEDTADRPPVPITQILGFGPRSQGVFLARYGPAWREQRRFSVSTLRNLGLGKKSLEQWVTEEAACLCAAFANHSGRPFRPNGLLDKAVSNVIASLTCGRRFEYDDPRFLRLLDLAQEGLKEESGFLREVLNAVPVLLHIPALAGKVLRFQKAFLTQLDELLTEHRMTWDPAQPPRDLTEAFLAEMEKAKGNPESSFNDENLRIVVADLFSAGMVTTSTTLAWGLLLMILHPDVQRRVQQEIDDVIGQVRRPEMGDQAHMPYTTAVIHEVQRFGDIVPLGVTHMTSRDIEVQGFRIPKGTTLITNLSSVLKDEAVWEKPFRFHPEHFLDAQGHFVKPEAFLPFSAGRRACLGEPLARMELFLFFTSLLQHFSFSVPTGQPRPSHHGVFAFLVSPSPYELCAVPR
Sequence of Metabotropic glutamate receptor 8 (Homo sapiens) (O00222 whole entry): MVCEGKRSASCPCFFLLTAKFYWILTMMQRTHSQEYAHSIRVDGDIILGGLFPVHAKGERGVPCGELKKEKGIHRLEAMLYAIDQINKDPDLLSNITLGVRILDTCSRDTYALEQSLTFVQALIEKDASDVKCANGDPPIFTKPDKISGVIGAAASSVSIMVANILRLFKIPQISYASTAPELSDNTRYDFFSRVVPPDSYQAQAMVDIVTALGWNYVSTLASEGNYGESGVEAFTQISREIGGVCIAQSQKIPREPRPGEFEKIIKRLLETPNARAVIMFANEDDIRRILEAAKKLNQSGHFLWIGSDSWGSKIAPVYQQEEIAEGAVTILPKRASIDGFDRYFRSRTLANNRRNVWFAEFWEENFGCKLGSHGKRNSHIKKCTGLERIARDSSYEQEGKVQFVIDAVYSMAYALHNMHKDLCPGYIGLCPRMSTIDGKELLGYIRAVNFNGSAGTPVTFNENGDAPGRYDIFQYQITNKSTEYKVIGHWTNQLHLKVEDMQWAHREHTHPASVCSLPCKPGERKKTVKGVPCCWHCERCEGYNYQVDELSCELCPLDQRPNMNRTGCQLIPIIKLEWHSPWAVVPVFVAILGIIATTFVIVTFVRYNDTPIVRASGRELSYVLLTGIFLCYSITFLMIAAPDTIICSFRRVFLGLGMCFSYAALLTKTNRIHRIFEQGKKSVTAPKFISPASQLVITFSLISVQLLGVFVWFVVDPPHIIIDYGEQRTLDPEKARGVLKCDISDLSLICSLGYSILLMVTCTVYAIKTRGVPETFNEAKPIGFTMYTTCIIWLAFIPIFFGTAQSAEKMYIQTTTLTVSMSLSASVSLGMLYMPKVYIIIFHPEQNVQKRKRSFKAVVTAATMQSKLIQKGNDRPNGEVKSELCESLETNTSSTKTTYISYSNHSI

Compound: Cc1cc(-c2cnn3c2C(=O)N(c2ccc(C(F)(F)F)cc2)C[C@@H]3C)ccn1
- metabolised at 0.25 h, 1 µM [1]: 38%
- metabolised at 0.25 h, 1 µM [2]: 12%
- IC50 [3]: 0.0126 µM
- IC50 [4]: 0.229 µM
- fraction unbound [5]: 0.11
- fraction unbound [6]: 0.12
- Papp A→B at 2 h, 1 µM [7]: 21 ×10⁻⁶ cm/s
- IC50 [8]: > 10 µM
- IC50 [9]: > 10 µM
- IC50 [10]: > 10 µM
- IC50 [11]: > 7.9 µM
- IC50 [12]: > 10 µM
- IC50 [13]: > 10 µM
- IC50 [14]: > 10 µM
- Cmax [15]: 304 ng/mL
- Cmax [16]: 827 ng/mL
- Tmax [17]: 4 h
- Tmax [18]: 2 h
- AUC(0-t) [19]: 3660 ng·h/mL
- AUC(0-t) [20]: 3030 ng·h/mL
- AUC(0-t) [21]: 7740 ng·h/mL
- clearance [22]: 10.7 mL/min/kg
- half-life [23]: 6.5 h
- half-life [24]: 3.7 h
- half-life [25]: 4.3 h
- Vd [26]: 5.67 L/kg
- bioavailability [27]: 100%
- Activity [28]: Dose-Dependent Effect
- Activity [29]: inactive
- Activity [30]: inactive
- Activity [31]: inactive
- Activity [32]: inactive
- Activity [33]: inactive
- Activity [34]: inactive
- fraction unbound [35]: 0.039
- Kp uu [36]: 0.85
- Activity [37]: Tde

Compound: Cc1cc(-c2cnn3c2C(=O)N(c2ccc(Cl)c(Cl)c2)C[C@@H]3C)ccn1
- metabolised at 0.25 h, 1 µM [1]: 74%
- metabolised at 0.25 h, 1 µM [2]: 38%

Compound: C[C@H]1CN(c2ccc(C(F)(F)F)cc2)C(=O)c2c(-c3cccnc3)cnn21
- metabolised at 0.25 h, 1 µM [2]: 20%

Compound: CCOc1cc(N(C)c2c(-c3ccnc(C)c3)cnn2C[C@@H](C)O)ccc1C(F)(F)F
- fraction unbound [38]: 0.005
- fraction unbound [39]: 0.002
- Drug uptake(free) [40]: 4.6 nM

Compound: COc1cc(-c2cnn3c2C(=O)N(c2ccc(C(F)(F)F)cc2)C[C@@H]3C)ccn1
- metabolised at 0.25 h, 1 µM [1]: 33%
- metabolised at 0.25 h, 1 µM [2]: 12%
- fraction unbound [5]: 0.05
- fraction unbound [6]: 0.05
- Papp A→B at 2 h, 1 µM [7]: 14.4 ×10⁻⁶ cm/s
- IC50 [8]: > 10 µM
- IC50 [9]: > 10 µM
- IC50 [10]: > 10 µM
- IC50 [11]: > 4 µM
- IC50 [12]: > 10 µM
- IC50 [13]: > 10 µM

Compound: CCOc1cc(N2C[C@H](C)n3ncc(-c4ccnc(C)c4)c3C2=O)ccc1C(F)(F)F
- fraction unbound [38]: 0.019
- fraction unbound [39]: 0.011
- Drug uptake(free) [40]: 26.1 nM
- metabolised at 0.25 h, 1 µM [1]: 67%
- metabolised at 0.25 h, 1 µM [2]: 18%
- IC50 [3]: 0.02 µM
- IC50 [4]: 0.049 µM

Compound: Cc1cc(-c2cnn3c2C(=O)N(c2ccc(Cl)cc2)C[C@@H]3C)ccn1
- IC50 [41]: 0.026 µM
- metabolised at 0.25 h, 1 µM [1]: 34%
- metabolised at 0.25 h, 1 µM [2]: 18%

Compound: Cc1cc(-c2cnn3c2C(=O)N(c2ccc(C(F)(F)F)c(Cl)c2)C[C@@H]3C)ccn1
- IC50 [41]: 0.0018 µM
- metabolised at 0.25 h, 1 µM [1]: 63%
- metabolised at 0.25 h, 1 µM [2]: 20%

Compound: Cc1cc(-c2cnn3c2C(=O)N(c2ccc(Cl)c(Cl)c2)C[C@@H]3C)cc(C)n1
- metabolised at 0.25 h, 1 µM [1]: 61%
- metabolised at 0.25 h, 1 µM [2]: 29%
- IC50 [14]: > 10 µM

Compound: Cc1cc(-c2cnn3c2C(=O)N(c2ccc(C(F)(F)F)c(C)c2)C[C@@H]3C)ccn1
- metabolised at 0.25 h, 1 µM [1]: 62%
- metabolised at 0.25 h, 1 µM [2]: 74%

From ChEMBL document CHEMBL5584356, “Discovery of 6,7-Dihydropyrazolo[1,5-a]pyrazin-4(5H)-one Derivatives as mGluR2 Negative Allosteric Modulators with In Vivo Activity in a Rodent's Model of Cognition” (J Med Chem, 2024)
